The values below come from patent US8242120B2 (priority 2007, dated 2012).

Entries after “also recorded” stand apart in the source; their conditions may differ.

Series [1] deals with Venezuelan Equine Encephalitis (VEE). It counts as cell-based, Venezuelan equine encephalitis virus.
The test system of another series is CTP synthase. The following applies: cited from earlier work.
Series [2] concerns Avian influenza A strain H5N1 virus. In kind it is cell-based.
Series [3] relates to Venezuelan equine encephalitis virus (TC-83 vaccine strain). The arrangement: species or system C3H/HeN mice. The following applies: in vivo.
Another series relates to flu A (DUCK)-H5N1 virus. It counts as cell-based, Avian influenza A H5N1.
For series [4] the following is noted: mouse, in vivo.

For the molecule `Nc1ccn([C@@H]2C[C@H](CO)[C@@H](O)[C@H]2O)c(=O)n1` [(−) carbodine, (1R,2S,3R,4R)-1-[2,3-Dihydroxy-4-(hydroxymethyl)-cyclopentan-1-yl]cytosine], the “activity against VEE in vitro” value in series [1] was “good activity”. The “inhibition of CTP synthase that converts UTP to CTP” value with CTP synthase is recorded as “known inhibitor”. Also, in series [2], the “activity as an inhibitor of Avian Influenza A strain H5N1” value was “good activity”. In addition, the “activity against vaccine strain (TC-83) of VEEV in C3H/HeN mouse model” value in series [3] was “active”. Besides, in series [3] (mouse), the “all disease signs measured” value is “effective in significantly improving”, the “mean day to death” value is given as “efficacious in significantly improving; also recorded: effective in significantly improving”, the “reduction in brain virus titer” value is 1 log and the survival result is on record as “efficacious in significantly improving; also recorded: effective in significantly improving”. Further, the weight gain entry in series [3] (mouse) is “efficacious in significantly improving; also recorded: effective in significantly improving”. Further, in the series on flu A (DUCK)-H5N1 virus, the “activity against H5N1 in vitro” value is reported as “good activity”. For the same molecule, the “weight loss in sham infected mice” value in series [4] is reported as “weight loss was observed”.
